Measurements from patent US20240035063A1, “SYNTHETIC MIXED CULTURE RESEMBLING A SKIN MICROBIOME” (Evonik Operations GmbH, priority 2020, published 2024).

Legend:
[1] = system: synthetic mixed culture resembling a skin microbiome (core microbiome model, strain mix ratio 1); assay: Aerobic cultivation of core skin microbiome model (ratio 1) with test compound, 16S rRNA sequencing; format: cell-based; conditions: ratio 1, compound added at T=0, T=28 h
Procedure: Individual bacterial strains are inoculated from cryocultures to initiate preculture growth. BHI Media (110493; Merck KGaA, 64293 Darmstadt) or DSMZ media 92 or DSMZ media 535 media according to the recommendations of the German Collection of Microorganisms and Cell Cultures GmbH are used for preculture cultivation. At the end of cultivation strains are diluted to result in an optical density of OD600=1 using BHI media. These single strain cultures are mixed in defined strain ratios depending on their growth properties. Cultivation is carried out using a BioLector [[…]-labs; Arnold-Sommerfeld-Ring 2, 52499 Baesweiler] small scale test system with MTP-48-BOH 1 plates. 100 μl of strain mix, according to the ratios in table 2 are added to 1 ml BHI media in resulting in a starting OD600 of 0.091. Cultivation is done at 37° C., a shaking frequency of 600 rpm and relative humidity of 85% for 28 h until the process is stopped. At the end of cultivation OD600 is determined, and the remaining culture is centrifuged at 4° C., 5000 rpm and 5 min in an Eppendorf table centrifuge. The supernatant is discarded, and the pellet is stored at -20° C. Genomic DNA is extracted from these samples using the DNeasy PowerSoil Pro Kit [Qiagen GmbH, QIAGEN Strasse 1, 40724 Hilden]. DNA samples are analyzed by LGC Genomics GmbH [Ostendstraße 25, 12459 Berlin] using primer pair 341 F, Seq. ID NO 1, and […], Seq. ID NO 2, or library preparation and […] MiSeq for sequencing. Results are processed by LGC Genomics GmbH and mapped to an individual reference database containing the sequences of the strains which are present in the individual model. Preculture cultivation, ratio mixing and cultivation is carried out as in example 1 or 2. Test compounds are added to the cultures at T=0, 4, 8, 12, 16, or 24 h. At the end of the cultivation samples are taken and processed as in example 1 or 2 and results are compared to non-treated cultures to evaluate the effect of the test compounds on the core microbiome model.

[2] = system: synthetic mixed culture resembling a skin microbiome (core microbiome model, strain mix ratio 1); assay: Anaerobic cultivation of core skin microbiome model (ratio 1) with test compound; format: cell-based; conditions: ratio 1, compound added at T=0, T=22 h
Procedure: Preculture cultivation and ratio mixing is carried out as in example 1. Anaerobic cultivation is done using a BioLector [[…]-labs; Arnold-Sommerfeld-Ring 2, 52499 Baesweiler] small scale test system with MTP-48-BOH 1 plates and the anaerobic module including an external mass flow controller for nitrogen (N2). 100 μl of strain mix, according to the ratios in table 2 are added to 1 ml BHI media resulting in a starting OD600 of 0.091. Cultivation is done at 37° C., a shaking frequency of 600 rpm and under nitrogen flushing for 22 h until the process is stopped. Preculture cultivation, ratio mixing and cultivation is carried out as in example 1 or 2. Test compounds are added to the cultures at T=0, 4, 8, 12, 16, or 24 h. At the end of the cultivation samples are taken and processed as in example 1 or 2 and results are compared to non-treated cultures to evaluate the effect of the test compounds on the core microbiome model.

Row | Molecule | relative abundance of S. aureus ([1]; vs non-treated culture) | relative abundance of S. epidermidis ([1]; vs non-treated culture) | relative abundance of S. hominis ([1]; vs non-treated culture) | shift compared to the baseline composition ([1]; vs non-treated culture) | general trends compared with aerobic conditions [2] | abundance of all other species ([1]; species other than S. warneri (and S. capitis for the lysate)) | abundance of S. warneri ([1]; vs non-treated culture) | microbial diversity ([1]; vs non-treated culture)
1 | CN(CC(=O)O)C(=N)N [Creatine] | slightly decreased | slightly increased | slightly increased | minor shift | remain the same |  |  | 
2 | sodium lauryl ether sulfate |  |  |  | drastic microbial community shifts | remain the same | at the expense of all other Staphylococcus species | significantly increased abundance | remarked loss of diversity
